From patent publication US20170296573A1, “ANTITUMOR DRUG COMPRISING BETA-CYCLODEXTRIN” (JRC G. K., priority 2014, published 2017)

How the values were obtained:
AKT [1] = assay: Example 10 Test A: AKT activation in UOK121 cells with α-, β-, γ-cyclodextrins; assay type: cell-based, human; conditions: 10% serum, 5 mM or 10 mM cyclodextrin, 45 minutes
Protocol: (§1) We ran 20 μg of proteins per lane for western blots. We ran 8, 10, 12.5 and 15% gels depending on the size of proteins being detected by western blots. When there are two proteins having a similar size, gel is flowed in each protein to make western blot analysis about each protein. The immunoprecipitation was undergone by adding 200 μg of protein from solubilized cells and Protein G Sepharose or Protein A Sepharose (Sigma P3296/P9242) pre-conjugated with immunoprecipitation antibody to a buffer for immunoprecipitation, and slowly rotating the tube containing the sample buffer at 4° C. overnight. The buffer for immunoprecipitation comprises 20 mM Tris Ph 7.5, 1% Triton-X100, 150 mM NaCl, phosphatase inhibitor cocktail (Cell Signaling (#58709S)), and 10% glycerol. […] The precipitate in the solution was separated with 15% SDS-PAGE or 12.5% SDS-PAGE and analyzed by Western blotting.
(Test A) UOK121 cells were incubated in 10% serum medium with 5 mM or 10 mM α-, β-, and γ-cyclodextrins for 45 minutes. […] The cells were harvested and analyzed by Western Blots for the phosphorylation of AKT and ERK1/2 as an indicator of the AKT and ERK1/2 activations. […] 2.5 hours after adding each cyclodextrin (i.e., 2 hours after adding ABT-263), all the cells were washed with the medium twice, and next day the live cells were counted by trypan-blue dye exclusion assay.

UOK121 cells = assay: Example 10 Test B: cyclodextrin with 2DG-ABT in UOK121 cells, live cells by trypan-blue dye exclusion; assay type: cell-based, human; conditions: 10 mM 2DG, 10 mM cyclodextrin, 0.3 μM ABT-263, 25 mM glucose
Protocol: (§2) Dead and live cells were counted by trypan-blue dye exclusion methods. These experiments were done in triplicate, and the error bars indicate the standard deviation.
(Test A) UOK121 cells were incubated in 10% serum medium with 5 mM or 10 mM α-, β-, and γ-cyclodextrins for 45 minutes. The same medium without any cyclodextrin was also incubated as a control. The cells were harvested and analyzed by Western Blots for the phosphorylation of AKT and ERK1/2 as an indicator of the AKT and ERK1/2 activations. (Test B) 10 mM 2DG was added to a medium of U0K121 cells in the presence of 25 mM glucose, and the medium was incubated for 1.5 hours. To the medium was added 10 mM α-, β-, or γ-cyclodextrin, and the medium was incubated for 30 minutes. Then, 0.3 μM ABT-263 was added thereto, and the medium was further incubated for 2 hours. Separately, a control that includes only α-, β-, or γ-cyclodextrin without 2DG or ABT-263, and another control that includes neither α-, β-, or γ-cyclodextrin, nor 2DG or ABT-263 were prepared. 2.5 hours after adding each cyclodextrin (i.e., 2 hours after adding ABT-263), all the cells were washed with the medium twice, and next day the live cells were counted by trypan-blue dye exclusion assay.

AKT [2] = assay: Example 1 Test A: IGF1-stimulated AKT phosphorylation in HeLa cells, Western blot; assay type: cell-based; conditions: serum-free, 7 mM bCD (MBCD) 30 minutes, 20 ng/mL IGF1 20 minutes
Protocol: as §1
(§3) (Test A) HeLa cells were incubated in serum-free medium with 0, 1.75, 3.5, and 7.0 mM bCD for 30 minutes, which were prepared in duplicate in each bCD concentration. […] The cells were harvested and analyzed by Western Blots for phosphor-serine AKT and AKT, in which the phosphorylation of AKT was used as an indicator of the AKT activation. […] The cells were harvested and analyzed by Western Blots about EGFR, IGF1R, ERK, PI3K, and AKT, as well as each phosphorylation thereof. […]

[3] = system: PI3K-AKT pro-survival signals; assay: Example 1 Tests B and C: EGF or IGF1 challenge of HeLa cells, Western blot for EGFR, IGF1R, PI3K, AKT phosphorylation; assay type: cell-based; conditions: 10 mM bCD (MBCD) 30 minutes, then 100 ng/mL EGF or 10 ng/mL IGF1
Protocol: as §1, §3

RTK-Ras-ERK signals = assay: Example 1 Tests B and C: ERK signals in EGF or IGF1 challenged HeLa cells, Western blot; assay type: cell-based; conditions: 10 mM bCD (MBCD) 30 minutes, then EGF or IGF1
Protocol: as §1, §3

AKT [4] = assay: Example 3 Method B: AKT phosphorylation in RCC4 cells in 10% serum; assay type: cell-based; conditions: 10 mM 2DG 2 hours, 10 mM bCD (MBCD) last 30 minutes
Protocol: (§4) We ran 20 μg of proteins per lane for western blots. We ran 8, 10, 12.5 and 15% gels depending on the size of proteins being detected by western blots. When there are two proteins having a similar size, gel is flowed in each protein to make western blot analysis about each protein. The immunoprecipitation was undergone by adding 200 μg of protein from solubilized cells and Protein G Sepharose or Protein A Sepharose (Sigma P3296/P9242) pre-conjugated with immunoprecipitation antibody to a buffer for immunoprecipitation, and slowly rotating the tube containing the sample buffer at 4° C. overnight. The buffer for immunoprecipitation comprises 20 mM Tris Ph 7.5, 1% Triton-X100, 150 mM NaCl, phosphatase inhibitor cocktail (Cell Signaling (#58709S)), and 10% glycerol. Next morning, the content in the tube was centrifuged. The precipitate was washed with the same buffer twice and dissolved in SDS buffer. The precipitate in the solution was separated with 15% SDS-PAGE or 12.5% SDS-PAGE and analyzed by Western blotting.
RCC4 cells were incubated with or without 10 mM 2DG for 2 hours in the presence of 10% serum. In the last 30 minutes, each one subset of cells treated/untreated with 2DG was exposed to 10 mM bCD before the cells were harvested and analyzed.

AKT [5] = assay: Example 3 Method C: recovery of AKT activities in HeLa cells after bCD washout; assay type: cell-based; conditions: 10 mM bCD (MBCD) one hour, washed, 10% serum, up to 120 minutes
Protocol: as §4
HeLa cells were incubated with 10 mM bCD for one hour in the presence of 10% serum before the cells were washed and re-incubated in medium containing 10% serum for the indicated period (˜120 minutes).

[6] = system: IGF1-induced hypoglycemia; assay: Example 4: IGF1-induced hypoglycemia in mice; assay type: in vivo; conditions: five-hour starved mice, 40 μg bCD (HPBCD) 30 minutes before 100 ng IGF1, glucose after thirty minutes
Protocol: Five-hour starved mice were either pre-treated with 40 μg bCD for 30 minutes, or without. They were then injected with 100 ng IGF1. After thirty minutes, the blood glucose levels were measured by drawing blood from each mouse tail. The experiments were performed in triplicate samples and the error bars indicate the standard deviation. The mice were all about 20 g.

AKT [7] = assay: Example 6 Test A: AKT phosphorylation, HeLa cervical cancer cells; assay type: cell-based; conditions: 10 mM bCD (MBCD) 30 minutes, 25 mM glucose
Protocol: as §1, with “overnight.” for “overnight. The buffer for immunoprecipitation comprises 20 mM Tris Ph 7.5, 1% Triton-X100, 150 mM NaCl, phosphatase inhibitor cocktail (Cell Signaling (#58709S)), and 10% glycerol.”
(§5) (Test A) HeLa cervical cancer cells, UOK121 renal cancer cells, Panc-1 pancreatic cancer cells, and A431 squamous cancer cells were untreated, pre-treated with 10 mM 2DG, co-incubated with 10 mM bCD for the last 30 minutes, or both-treated with the 10 mM 2DG and the 10 mM bCD, in the presence of 25 mM glucose contained in the media. Each cell was harvested and analyzed by Western Blotting. (Test B) The same samples of A431 cell lysates in Test A were analyzed for EGFR activation, ERK1/2 activation, and PI3K activation. […] The cells were harvested and the live cells were counted by trypan-blue dye exclusion assay. […]

AKT [8] = assay: Example 6 Test A: AKT phosphorylation, UOK121 renal cancer cells; assay type: cell-based, human; conditions: 10 mM bCD (MBCD) 30 minutes, 25 mM glucose
Protocol: as §1, with “overnight.” for “overnight. The buffer for immunoprecipitation comprises 20 mM Tris Ph 7.5, 1% Triton-X100, 150 mM NaCl, phosphatase inhibitor cocktail (Cell Signaling (#58709S)), and 10% glycerol.”
as §5

AKT [9] = assay: Example 6 Test A: AKT phosphorylation, Panc-1 pancreatic cancer cells; assay type: cell-based; conditions: Panc-1 cells, 10 mM bCD (MBCD) 30 minutes, 25 mM glucose
Protocol: as §1, with “overnight.” for “overnight. The buffer for immunoprecipitation comprises 20 mM Tris Ph 7.5, 1% Triton-X100, 150 mM NaCl, phosphatase inhibitor cocktail (Cell Signaling (#58709S)), and 10% glycerol.”
as §5

AKT [10] = assay: Example 6 Test A: AKT phosphorylation, A431 squamous cancer cells; assay type: cell-based; conditions: 10 mM bCD (MBCD) 30 minutes, 25 mM glucose
Protocol: as §1, with “overnight.” for “overnight. The buffer for immunoprecipitation comprises 20 mM Tris Ph 7.5, 1% Triton-X100, 150 mM NaCl, phosphatase inhibitor cocktail (Cell Signaling (#58709S)), and 10% glycerol.”
as §5

EGFR, ERK1/2, and PI3K = assay: Example 6 Test B: EGFR, ERK1/2 and PI3K activation in A431 cells; assay type: cell-based; conditions: bCD and/or 2DG, 10 mM each
Protocol: as §1, with “overnight.” for “overnight. The buffer for immunoprecipitation comprises 20 mM Tris Ph 7.5, 1% Triton-X100, 150 mM NaCl, phosphatase inhibitor cocktail (Cell Signaling (#58709S)), and 10% glycerol.”
as §5

Panc-1 cells = assay: Example 9: 2DG-bCD-TRAIL in Panc-1 cells, live cells by trypan-blue dye exclusion; assay type: cell-based; conditions: TRAIL 10 ng/ml alone
Protocol: as §2
(A) Panc-1 cells were treated with the standard 2DG-bCD-TRAIL protocol (FIG. 3). The live cells were distinguished from the dead cells by trypan-blue dye exclusion assays, and the live cells were counted, and graphed. The experiments were performed in triplicate and the error bars represent the standard deviations. (B) Western blots of Panc-1 cells left untreated, treated with TRAIL, treated with 2DG-bCD combination, and treated with the combination of 2DG-bCD-TRAIL as depicted in FIG. 3. The cells were harvested at hour 6. The experiments were repeated three times with similar results.

OC[C@H]1O[C@@H]2O[C@H]3[C@H](O)[C@@H](O)[C@@H](O[C@H]4[C@H](O)[C@@H](O)[C@@H](O[C@H]5[C@H](O)[C@@H](O)[C@@H](O[C@H]6[C@H](O)[C@@H](O)[C@@H](O[C@H]7[C@H](O)[C@@H](O)[C@@H](O[C@H]8[C@H](O)[C@@H](O)[C@@H](O[C@H]1[C@H](O)[C@H]2O)O[C@@H]8CO)O[C@@H]7CO)O[C@@H]6CO)O[C@@H]5CO)O[C@@H]4CO)O[C@@H]3CO [β-cyclodextrin]
AKT activation (phosphorylation) (AKT [1]): lowered
enhancement of the combination effect of 2DG-ABT (live cells) (UOK121 cells): clearly enhanced

OC[C@H]1O[C@@H]2O[C@H]3[C@H](O)[C@@H](O)[C@@H](O[C@H]4[C@H](O)[C@@H](O)[C@@H](O[C@H]5[C@H](O)[C@@H](O)[C@@H](O[C@H]6[C@H](O)[C@@H](O)[C@@H](O[C@H]7[C@H](O)[C@@H](O)[C@@H](O[C@H]8[C@H](O)[C@@H](O)[C@@H](O[C@H]9[C@H](O)[C@@H](O)[C@@H](O[C@H]1[C@H](O)[C@H]2O)O[C@@H]9CO)O[C@@H]8CO)O[C@@H]7CO)O[C@@H]6CO)O[C@@H]5CO)O[C@@H]4CO)O[C@@H]3CO [γ-cyclodextrin]
enhancement of the combination effect of 2DG-ABT (live cells) (UOK121 cells): little enhanced

methyl-β-cyclodextrin [bCD]
process that IGF1 generates signal to AKT (AKT phosphorylation) (AKT [2]): completely block
AKT activations [3]: considerably diminished
activation of EGFR, IGF1R, and PI3K [3]: clearly activated
Ras-ERK proliferation signals (RTK-Ras-ERK signals): intact
phosphorylation of AKT (AKT [4]): almost totally absent
AKT activities coming back after return to media without bCD (AKT [5]): did not take long
IGF1-induced hypoglycemia (blood glucose) [6]: clearly attenuated
AKT phosphorylation (AKT [7]): attenuated
AKT phosphorylation (AKT [8]): attenuated
AKT phosphorylation (AKT [9]): attenuated
AKT phosphorylation (AKT [10]): attenuated
EGFR, ERK1/2, and PI3K activation (EGFR, ERK1/2, and PI3K): all activated

B1: TRAIL: TNF-related apoptosis-inducing ligand (protein, UniProt P50591 1-281, looked up)
Tumor necrosis factor ligand …: MAMMEVQGGPSLGQTCVLIVIFTVLLQSLCVAVTYVYFTNELKQMQDKYSKSGIACFLKEDDSYWDPNDEESMNSPCWQVKWQLRQLVRKMILRTSEETISTVQEKQQNISPLVRERGPQRVAAHITGTRGRSNTLSSPNSKNEKALGRKINSWESSRSGHSFLSNLHLRNGELVIHEKGFYYIYSQTYFRFQEEIKENTKNDKQMVQYIYKYTSYPDPILLMKSARNSCWSKDAEYGLYSIYQGGIFELKENDRIFVSVTNEHLIDMDHEASFFGAFLVG
effect on Panc-1 cells (live cells) (Panc-1 cells): virtually no effect
